Changes are numbered by the printed parent chain.
Tests used:
AR [1] = molecular target: T1, AR (Homo sapiens, UniProt P10275, T878A); assay: Competitive [3H]-R1881 ligand binding assay, LNCaP whole cell extracts; details: 1 nM [3H]-R1881, unlabeled ligand 1-10,000 nM, relative to DHT
T1 construct: LNCaP without transfection; endogenous in cells; host or cells: LNCaP
T1 sequence (P10275 1-920 T878A): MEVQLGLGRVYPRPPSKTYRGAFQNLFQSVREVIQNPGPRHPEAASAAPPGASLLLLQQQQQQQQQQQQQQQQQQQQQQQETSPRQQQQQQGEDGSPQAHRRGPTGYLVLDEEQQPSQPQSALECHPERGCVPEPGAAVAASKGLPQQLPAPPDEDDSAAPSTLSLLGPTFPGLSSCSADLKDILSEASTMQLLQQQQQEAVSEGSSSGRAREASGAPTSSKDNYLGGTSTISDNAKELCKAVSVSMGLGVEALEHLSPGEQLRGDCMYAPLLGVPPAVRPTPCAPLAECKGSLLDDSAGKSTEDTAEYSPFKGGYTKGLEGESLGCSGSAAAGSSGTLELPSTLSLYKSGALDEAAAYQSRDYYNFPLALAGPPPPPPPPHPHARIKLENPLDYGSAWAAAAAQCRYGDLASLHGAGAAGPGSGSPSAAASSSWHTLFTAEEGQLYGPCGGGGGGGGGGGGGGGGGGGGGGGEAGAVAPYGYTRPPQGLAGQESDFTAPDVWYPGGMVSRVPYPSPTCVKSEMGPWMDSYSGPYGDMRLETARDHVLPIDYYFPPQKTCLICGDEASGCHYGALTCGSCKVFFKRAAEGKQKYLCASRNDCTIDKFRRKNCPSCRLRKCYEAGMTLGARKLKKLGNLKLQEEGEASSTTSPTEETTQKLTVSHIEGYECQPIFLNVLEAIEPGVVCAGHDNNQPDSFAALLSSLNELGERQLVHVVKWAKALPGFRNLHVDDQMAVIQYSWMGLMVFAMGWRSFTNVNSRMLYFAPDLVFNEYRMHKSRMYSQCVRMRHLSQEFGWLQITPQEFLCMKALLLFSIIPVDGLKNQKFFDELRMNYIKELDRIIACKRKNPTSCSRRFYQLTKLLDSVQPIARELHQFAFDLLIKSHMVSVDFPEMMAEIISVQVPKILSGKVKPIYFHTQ
Description: (§1) Ligand Binding Assay. Whole cell extracts from COS-1 with transient transfection of pSG5-AR, or LNCaP without transfection, were incubated for 2 h at 37° C. with 1 nM [^3H]-synthetic androgen methyltrienolone (R1881) in the presence and absence of increasing concentrations (1-10,000 nM) of unlabeled ligands. Then, hydroxyapatite (Bio-Rad) was added and stirred for 15 min at 4° C. After centrifugation and washing, radioactivity was determined by scintillation counting.
(§2) Clinically available antiandrogens have an affinity for the AR, allowing a competition with androgens for binding. To determine whether ADEK has this common feature of AR antagonists, the competitive androgen binding assay was performed.

AR [2] = molecular target: T1, AR; assay: Adiol-induced AR transcription, MMTV-Luc in LNCaP cells; format: cell-based; details: 2.5 nM Adiol, compound at 1 μM
Description: (§3) Cell Culture, Transfection, and Reporter Gene Assay. The human prostate cancer cell lines, LNCaP, PC-3, and DU145, and non-prostate cancer cell line COS-1 were maintained in RPMI or Dulbecco's modified Eagle's medium (DMEM) (Life Technologies) supplemented with 10% fetal bovine serum (FBS). Transfections and luciferase (Luc) assays were performed as previously described (Miyamoto, H., Yeh, S., Wilding, G. & Chang, C. (1998) Proc. Natl. Acad. Sci. USA 95, 7379-7384; Miyamoto, H., Rahman, M., Takatera, H., Kang, H.-Y., Yeh, S., Chang, H.-C., Nishimura, K., Fujimoto, N. & Chang, C. (2002) J. Biol. Chem. 277, 4609-4617). Briefly, cells seeded to reach a density of 50-60% confluence in 12 well tissue culture plates were transfected with 1.5 μg of DNA according to “SuperFect transfection” instructions (Qiagen). After 2-3 h incubation, cells were treated with medium supplemented with charcoal-stripped FBS containing either ethanol or ligands for 24 h. The cells were then harvested and whole cell extracts were used for Luc assay. The Luc activity was determined using a Dual-Luciferase Reporter Assay System (Promega) and luminometer.
(§4) Effect of ADEK on AR Transcription. […] (set as 100%). Values were obtained from the mean±SD of at least three determinations.

wild-type AR [3] = molecular target: T2, wild-type AR (Homo sapiens, UniProt P10275); assay: Competitive [3H]-R1881 ligand binding assay, extracts of COS-1 transfected with wild-type AR; set-up: expressed in transfected cells; host or cells: COS-1; details: 1 nM [3H]-R1881, unlabeled ligand 1-10,000 nM, relative to DHT
T2 sequence (P10275 1-920): T1 sequence (P10275 1-920 T878A) with A878T
Description: as §1, §2

wild-type AR [4] = molecular target: T2, wild-type AR; assay: AR transcription, MMTV-Luc reporter in COS-1 cells co-transfected with pSG5-AR; format: cell-based; set-up: expressed in transfected cells; host or cells: COS-1; details: COS-1, 1 nM DHT
Description: (§5) Cell Culture, Transfection, and Reporter Gene Assay. The human prostate cancer cell lines, LNCaP, PC-3, and DU145, and non-prostate cancer cell line COS-1 were maintained in RPMI or Dulbecco's modified Eagle's medium (DMEM) (Life Technologies) supplemented with 10% fetal bovine serum (FBS). […] Briefly, cells seeded to reach a density of 50-60% confluence in 12 well tissue culture plates were transfected with 1.5 μg of DNA according to “SuperFect transfection” instructions (Qiagen). After 2-3 h incubation, cells were treated with medium supplemented with charcoal-stripped FBS containing either ethanol or ligands for 24 h. The cells were then harvested and whole cell extracts were used for Luc assay. The Luc activity was determined using a Dual-Luciferase Reporter Assay System (Promega) and luminometer.
(§6) The pSG5-AR was co-transfected in COS-1 cells. […] Values were obtained from the mean±SD of at least three determinations. DU145 cells were transfected with the pSG5-AR and MMTV-Luc in the presence or absence of pSG5-ARA70. […] Values were obtained for the mean±SD of at least three determinations.

mutant AR = molecular target: T3, mutant AR (Homo sapiens, UniProt P10275, T878A); assay: AR transcription, MMTV-Luc reporter in LNCaP cells; format: cell-based
T3 construct: LNCaP without transfection; endogenous in cells; host or cells: LNCaP
T3 sequence (P10275 1-920 T878A): T1 sequence (P10275 1-920 T878A)
Description: as §5, §6

PSA = PSA expression in LNCaP cells, Western blot; format: cell-based, human; details: 48 h, 1 nM DHT or 1 μM HF, casodex, ADEK in absence of DHT
Description: Western Blot. […] An antibody for -actin (Santa Cruz Biotechnology) was used as the internal control. Blots were quantitated by Collage software (Fotodyne).
The 33-kDa protein was quantitated. β-Actin expression was used as an internal control. […] The mean±SD of three separate experiments was determined. […] Total cell number was counted by hemocytometer. The mean of at least three determinations was determined.

wild-type AR [5] = molecular target: T2, wild-type AR; assay: Adiol-induced AR transcription, MMTV-Luc in PC-3 cells with pSG5-AR; format: cell-based; set-up: expressed in transfected cells; host or cells: PC-3; details: PC-3, 2.5 nM Adiol, compound at 1 μM
Description: as §3, §4

RBA in LNCaP (AR [1]): 23.0
block of Adiol-induced AR transcription (in words) (AR [2]): failed to significantly block
RBA in COS-1 with AR (wild-type AR [3]): 17.1
suppression of DHT-induced wild-type AR transcription compared with ADEK at 1 μM (21%), in words (wild-type AR [4]): similar
suppression of DHT-induced mutant AR transcription (in words) (mutant AR; 10 μM): no suppression
agonist / androgenic activity on mutant AR transcription (in words) (mutant AR; MMTV-Luc, HF at 10 μM): full agonist
block of Adiol-induced AR transcription (in words) (wild-type AR [5]): failed to significantly block
Compound: CC(C)(O)C(=O)Nc1ccc([N+](=O)[O-])c(C(F)(F)F)c1 [HF, hydroxyflutamide, reference compound]
endogenous PSA expression over mock treatment (PSA): 3.5 fold
